{"source": "paper PMC6981454", "about": "“Promising 2,6,9-Trisubstituted Purine Derivatives for Anticancer Compounds: Synthesis, 3D-QSAR, and Preliminary Biological Assays” (International Journal of Molecular Sciences, 2019)", "format_in_all_cases": "cell-based, human", "key": {"p53": {"test_system": "p53", "experiment": "p53-dependent transcriptional activity reporter assay (β-galactosidase) in Arn-8 cells", "conditions": "p53 reporter assays", "experimental": "Table S3. Results of p53 activity of compounds 4a-u and 7a-j.\nCompound fold p53 activity […]\np53-dependent transcriptional activity\nTo measure p53-dependent transcriptional activity, -galactosidase activity was determined in the human melanoma cell line Arn-8, stably transfected with a p53-responsive reporter construct pRGC foslacZ as described before. After 24 h incubation with the inhibitors, the cells were permeabilized with 0.3% Triton X-100 for 15 min, and then 4-methylumbelliferon-ß-D-galactopyranoside was added as a substrate to a final concentration of 80 µM. […]\nfluorescence was measured at 355/460 nm (ex/em) with a Fluoroskan Ascent microplate reader […]\nFigure S6. Dose-response effect of roscovitine on p53 activity in ARN8 cells (control experiment).\n(1 picture or pasted object on this page, not shown here)"}, "CACO2": {"test_system": "CACO2", "experiment": "MTT cytotoxicity assay, 72 h", "conditions": "Homo sapiens, Caco-2, IC50 ± SD", "description": "In our study, the human cancer cell lines used were CFAPC- 1 (pancreatic adenocarcinoma); NCI-H460 (large cell lung); HL-60 (acute promyelocytic leukaemia); CACO2 (colorectal adenocarcinoma); HCT-116 (colorectal carcinoma); K562 (chronic myeloid leukaemia); MCF-7 (breast adenocarcinoma); and MRC-5 control cells (normal fibroblasts).\nCFAPC-1, NCI-H460 H1975, HL-60, HCT-116, CACO2, K562, MCF-7, and MCR-5 were grown and maintained in RPMI 1640 and DMEM F12 as appropriate with 10% fetal bovine serum, 100 UI/mL penicillin–streptomycin, and cultured al 37 °C in 5% CO2 humidified atmosphere. Control cultures were treated with dimethyl sulfoxide (1%) alone at the same concentration as in the purine derivatives treatment.\nCytotoxicity assays were performed by using the MTT reduction method as described in the literature [23, 37]. Briefly, cancer cell lines were plated in a flat-bottom 96-wells plate at 1 × 10^4 cells per well density. Then, the cells were incubated with synthetized compounds at different concentrations (from 0.1 to 100 µM) in 200 µL of 10% fetal bovine serum-RPMI or EMEM culture medium at 37 °C for 72 h. Then, 10 µL of MTT was added at a final concentration of 0.5 mg/mL, incubated at 37 °C for 4 h, and then solubilized with 10% sodium dodecyl sulphate (SDS) in 0.1 mM HCl and incubated overnight at 37 °C. Formazan formation was measured at 570 nm in a multi-well reader (StatFax 4200)."}, "HL-60 cells": {"test_system": "HL-60 cells", "experiment": "Cell cycle analysis, PI flow cytometry", "conditions": "HL-60, 25 µM, 48 h", "experimental": "Considering that apoptotic mechanisms are associated with the G1/S boundary cell cycle arrest and the inhibition of cell cycle progression is an important factor to control cancer cell growth, we were interested in investigating whether 7h affects the cell cycle of HL-60 cells. We analyzed the cell cycle distribution of the cells stained with PI using flow cytometry. […] This effect is in agreement with apoptotic mechanisms.\nHL60 cells were plated in 6-well plates at a density of 2.0 × 10^5 cells/1.5 mL/well, and grown overnight at 37 °C in a 5% CO2 humidified atmosphere. Cells were treated with compounds 7h at 25 µM concentration or 1% DMSO (controls) for 48 h. Aliquots of cells were collected, pelleted, washed, and fixed with ethanol (70% v/v) for at least 30 min at 4 °C. Cells were twice resuspended in PBS, and after centrifugation and elimination of the supernatant, resuspended in a solution containing PBS, PI ([…], Invitrogen), RNase A (20 mg/mL, Invitrogen). After a final incubation for 1 h in the dark at 37 °C; PI signal was measured using a FACS canto II flowcytometer (BD; Mountain View, CA) with a 488 nm excitation laser, captured, and FACS Diva was used as the acquisition software. The percentage of cells in each phase was analyzed using the FCS Express v6 software. Three independent biological replicates were performed."}}, "data": [{"smiles": "O=[N+]([O-])c1ccc(N2CCN(c3nc(Cl)nc4c3ncn4C3CCCC3)CC2)cc1", "note": "[7h, 2-Chloro-9-cyclopentyl-6-(4-(4-nitrophenyl)piperazin-1-yl)-9H-purine]", "values": [{"measurement": "effect on p53 activation", "setting": "p53", "result": "no effect on p53 activation"}, {"measurement": "IC50", "setting": "CACO2", "result": "> 100", "unit": "µM"}, {"measurement": "effect on cell cycle distribution", "setting": "HL-60 cells", "result": "accumulation of cells in S cell cycle phase"}]}]}
